Results reported in ChEMBL document CHEMBL5523678, “Synthesis and clinical application of new drugs approved by FDA in 2023” (Eur J Med Chem, 2024).

Experiments:
[1] = Inhibition of Drosophila melanogaster GABA receptor
[2] = Inhibition of Gamma secretase (unknown origin); parameters: species or system Homo sapiens

Row | SMILES | IC50 [1] [nM] | IC50 [2] [nM]
1 | Cc1cc(C2=NO[C@@](c3cc(Cl)c(Cl)c(Cl)c3)(C(F)(F)F)C2)sc1C(=O)NCC(=O)NCC(F)(F)F [LOTILANER] | 23.8 | 
2 | CCC[C@H](N[C@H]1CCc2cc(F)cc(F)c2C1)C(=O)Nc1cn(C(C)(C)CNCC(C)(C)C)cn1 [NIROGACESTAT] |  | 6.2
